Patent US10336689B1, “Gossypol eflornithine Schiff base compound with antitumor activities and a method of preparing the same” (SHAANXI UNIVERSITY OF SCIENCE AND TECHNOLOGY, priority 2019, dated 2019)
Where two headings read alike, the source gives them in different places.

Assays:
Format in all cases: cell-based
[1] = system: human hepatoma cells (HepG2); assay: MTT tumor cell proliferation inhibition test, HepG2; details: read-out: Half Inhibitory Concentration IC50, HepG2
Method: (§1) The gossypol eflornithine Schiff base compound was subjected to tumor cell proliferation inhibition test, and conventional MTT method was used.
(§2) Cell lines: human hepatoma cells (HepG2), human lung cancer cells (A-549), human gastric cancer cells (SGC-7901). The culture medium was DMEM+15% NBS+double antibody.
(§3) Sample solution preparation: after dissolving with DMSO (Merck), PBS (−) was added to obtain 100 μmol/L solution or homogeneous suspension. The solution was diluted with PBS (−) in DMSO to a final concentration of 0.1, 1, 10, 20, 40, 60, 80, 100 μmol/L.
(§4) Gossypol and eflornithine used as control solution, prepared under the same condition.
(§5) Cell culture: adherent growth Tumor cells were cultured in 1640 medium containing 10% inactivated neonatal bovine serum and penicillin, streptomycin (1 million U/L), placed in carbon dioxide incubator at 37° C., 5% CO2, and saturated humidity. Cells were treated serially passaged 2-3 times. The first culture was washed with PBS 2 times, and digested with trypsin. Fresh culture medium was added evenly, cells were adjusted to an appropriate concentration and transferred into a new culture flask. […]
(§6) Experimental Principle: Living cells mitochondria in the dehydrogenase can reduce yellow MTT to water-insoluble blue-violet product MT (MTT formazan), deposited in the cells. […] DMSO can dissolve blue violet crystals, and the color depth is proportional to the amount contained, so the absorbance measured by the microplate reader can reflect the cell viability.
(§7) Methods: The exponential phase cells were digested and counted and seeded in 96-well plates at a density of 2×10^4/mL at 100 μl per well. […] After 48 hours, the supernatant was discarded, and 100 μl of MTT ((2-(4,5-dimethyl-2-thiazolyl)-3,5-diphenyl-2H-[…]) (1 mg/mL) was added to each well. After another 4 hours, the supernatant was discarded, and 100 μl of DMSO was added to each well. After mixing, the absorbance was measured at 570 nm using a microplate reader. An IC50 calculation software was used to determine the half inhibitory concentration (IC50).

[2] = system: human lung cancer cells (A-549); assay: MTT tumor cell proliferation inhibition test, A-549; details: read-out: Half Inhibitory Concentration IC50, A549
Method: as §1, §2, §3, §4, §5, §6, §7

[3] = system: human gastric cancer cells (SGC-7901); assay: MTT tumor cell proliferation inhibition test, SGC-7901; details: for IC50: Homo sapiens, read-out: Half Inhibitory Concentration IC50, SGC-7901
Method: as §1, §2, §3, §4
Cell culture: adherent growth Tumor cells were cultured in 1640 medium containing 10% inactivated neonatal bovine serum and penicillin, streptomycin (1 million U/L), placed in carbon dioxide incubator at 37° C., 5% CO2, and saturated humidity. Cells were treated serially passaged 2-3 times. The first culture was washed with PBS 2 times, and digested with trypsin. Fresh culture medium was added evenly, cells were adjusted to an appropriate concentration and transferred into a new culture flask. Cell in an exponential phase were chosen for the tests.
MTT Assay for Cell Viability and IC50 Determination:
Experimental Principle: Living cells mitochondria in the dehydrogenase can reduce yellow MTT to water-insoluble blue-violet product MT (MTT formazan), deposited in the cells. The amount of production is proportional to the number of living cells. […] DMSO can dissolve blue violet crystals, and the color depth is proportional to the amount contained, so the absorbance measured by the microplate reader can reflect the cell viability.
Methods: The exponential phase cells were digested and counted and seeded in 96-well plates at a density of 2×10^4/mL at 100 μl per well. After 24 hours of incubation, the cells to be tested were treated with 0.1, 1, 10, 20, 40, 60, 80, 100 μmol/L of the compounds. Each experimental group had 5 wells in each concentration, and the culture medium containing 0.4% DMSO was used as control. After 48 hours, the supernatant was discarded, and 100 μl of MTT ((2-(4,5-dimethyl-2-thiazolyl)-3,5-diphenyl-2H-[…]) (1 mg/mL) was added to each well. After another 4 hours, the supernatant was discarded, and 100 μl of DMSO was added to each well. After mixing, the absorbance was measured at 570 nm using a microplate reader. An IC50 calculation software was used to determine the half inhibitory concentration (IC50).

[4] = HepG2 cells, MTT, 48 hours treatment
[5] = A549 cells, MTT, 48 hours treatment
[6] = SGC-7901 cells, MTT, 48 hours treatment

| IC50 [1, 4] | IC50 [2, 5] | IC50 [3, 6] | SMILES | IC50 ([1]; HepG2, 48 h) | IC50 ([2]; A549, 48 h) | IC50 ([3]; SGC-7901, 48 h) | antitumor activity against SGC-7901 cell lines compared with gossypol ([3]; SGC-7901 cells, MTT, comparison with gossypol) |
| --- | --- | --- | --- | --- | --- | --- | --- |
|  |  |  | Cc1cc2c(C(C)C)c(O)c(O)c(C=O)c2c(O)c1-c1c(C)cc2c(C(C)C)c(O)c(O)c(C=O)c2c1O [Gossypol] | 9.55 ± 0.41 µM | 13 ± 0.32 µM | 19.8 ± 0.66 µM |  |
| > 100 µM | > 100 µM | > 100 µM | NCCCC(N)(C(=O)O)C(F)F (stereo not shown) [Eflornithine] |  |  |  |  |
| 20.1 ± 0.57 µM | 11.6 ± 0.2 µM | 11.1 ± 0.34 µM | Cc1cc2c(C(C)C)c(O)c(O)c(/C=N\CCCC(N)(C(=O)O)C(F)F)c2c(O)c1-c1c(C)cc2c(C(C)C)c(O)c(O)c(/C=N\CCCC(N)(C(=O)O)C(F)F)c2c1O (stereo not shown) [gossypol eflornithine Schiff base compound] |  |  |  | better antitumor activity against SGC-7901 cell lines than gossypol |
